Drawing on ChEMBL document CHEMBL6182859, “Synthesis of Thioloformate-Containing Lathyrane Diterpene Derivates via a [3,3] Sigmatropic Rearrangement and Their Anti-HIV Activity” (J Nat Prod, 2025), this text covers EC50, CC50 and selectivity ratio for 9 compounds.

Data set [1] deals with Human immunodeficiency virus 1. Kind of data set: Anti-HIV activity against HIV-1 NL 4.3 infected in human MT4 cells assessed as inhibition of virus-induced cytopathicity measured after 4 days by CellTiter 96 Aqueous One Solution Cell Proliferation Assay. It counts as functional, organism-based. The settings on record: Human immunodeficiency virus 1, NL 4.3, MT4, 96 h. Background: Protection from cytopathic effect is a common read-out in antiviral testing.

The subject of data set [2] is Human immunodeficiency virus 2. Nature of the data set: Anti-HIV activity against HIV-2 ROD infected in human MT4 cells assessed as inhibition of virus-induced cytopathicity measured after 4 days by CellTiter 96 Aqueous One Solution Cell Proliferation Assay. It counts as functional, organism-based. Particulars: Human immunodeficiency virus 2, ROD, MT4, 96 h.
Data set [3] is described as follows: Cytotoxicity against human MT4 cells assessed as reduction in cell viability measured after 4 days by CellTiter 96 Aqueous One Solution Cell Proliferation Assay. Format: toxicity, cell-based. The settings on record: time 4 day.
Data set [4] in a line: Selectivity index, ratio of CC50 for cytotoxicity against human MT4 cells to EC50 for antiviral activity against HIV-1 NL 4.3 infected in human MT4 cells. It counts as toxicity, cell-based. Particulars: read-out: Ratio CC50/EC50.
A short description of data set [5]: Selectivity index, ratio of CC50 for cytotoxicity against human MT4 cells to EC50 for antiviral activity against HIV-2 ROD infected in human MT4 cells. It counts as toxicity, cell-based. Particulars: read-out: Ratio CC50/EC50.

In general, EC50 refers to the concentration giving half of the maximal effect. A word on the CC50: it is the concentration at which the toxic effect on the cells reaches its halfway point.

On to `C/C1=C\[C@@H]2[C@H](CC/C(CSC(=O)Oc3ccc(F)cc3)=C\C3[C@@H](O)[C@@H](C)C[C@]3(O)C1=O)C2(C)C` (some centres undefined), for which the EC50 in data set [1] and in data set [2] was greater than 45.2 µM in each case. For the same compound, the CC50 at 96 h in data set [3] was found to be 45.2 µM.

Regarding `C/C1=C\[C@@H]2[C@H](CC/C(CSC(=O)Oc3ccccc3Br)=C\C3[C@@H](O)[C@@H](C)C[C@]3(O)C1=O)C2(C)C` (some centres undefined), the concentration giving a half-maximal response (EC50) in data set [1] and in data set [2] was greater than 45.2 µM in each case. In addition, the cytotoxic concentration (CC50) at 96 h in data set [3] came out at 45.2 µM.

In the case of `COc1ccc(OC(=O)SC/C2=C/C3[C@@H](O)[C@@H](C)C[C@]3(O)C(=O)/C(C)=C/[C@@H]3[C@H](CC2)C3(C)C)cc1` (some centres undefined), the EC50 in data set [1] and in data set [2] was greater than 47.4 µM throughout. For the same compound, the CC50 at 96 h in data set [3] is 47.4 µM.

For `C/C1=C\[C@@H]2[C@H](CC/C(CSC(=O)Oc3cc(F)cc(F)c3)=C\C3[C@@H](O)[C@@H](C)C[C@]3(O)C1=O)C2(C)C` (some centres undefined), the EC50 in data set [1] and in data set [2] was greater than 45 µM throughout. For the same compound, the cytotoxic concentration (CC50) at 96 h in data set [3] was 45 µM.

For `C/C1=C\[C@@H]2[C@H](CC/C(CSC(=O)Oc3ccc(Cl)cc3)=C\C3[C@@H](O)[C@@H](C)C[C@]3(O)C1=O)C2(C)C` (some centres undefined), the EC50 in data set [1] and in data set [2] was greater than 45.4 µM throughout. For the same compound, in data set [3], the cytotoxic concentration (CC50) at 96 h stood at 45.4 µM.

As for `C/C1=C\[C@@H]2[C@H](CC/C(CSC(=O)Oc3ccccc3)=C\C3[C@@H](O)[C@@H](C)C[C@]3(O)C1=O)C2(C)C` (some centres undefined), the results for the EC50 in data set [1] and in data set [2] were greater than 13.1 µM and 13.1 µM, respectively. Moreover, the 50% cytotoxic concentration (CC50) at 96 h in data set [3] came to 13.1 µM.

Take `C/C1=C\[C@@H]2[C@H](CC/C(CSC(=O)Oc3ccc(C)cc3)=C\C3[C@@H](O)[C@@H](C)C[C@]3(O)C1=O)C2(C)C` (some centres undefined): the half-maximal effective concentration (EC50) in data set [1] is 11.3 µM; in data set [2], 6.6 µM. Moreover, the CC50 at 96 h in data set [3] came to 45.1 µM. Also, the selectivity ratio in data set [4] is greater than 4; in data set [5] it was greater than 6.8.

Take `C=C1CC[C@H]2[C@@H](/C=C(\C)C(=O)[C@@]3(OC(C)=O)C[C@H](C)[C@H](OC(=O)c4ccccc4)C3[C@H]1OC(C)=O)C2(C)C` (some centres undefined): the concentration for a half-maximal effect (EC50) in data set [1] and in data set [2] was greater than 100 µM in each case. Moreover, the CC50 at 96 h in data set [3] was greater than 100 µM.

As to `C/C1=C\[C@@H]2[C@H](CC/C(CSC(=O)Oc3c(C)cccc3C)=C\C3[C@@H](O)[C@@H](C)C[C@]3(O)C1=O)C2(C)C` (some centres undefined), the 50% effective concentration (EC50) in data set [1] and in data set [2] was greater than 100 µM each time. Further, the cytotoxic concentration (CC50) at 96 h in data set [3] is greater than 100 µM.
